21 compounds from US7176228B2, “Pyrazole biphenylcarboxamides” (Bayer Cropscience AG, priority 2000, dated 2007) can be followed below.

SMILES strings stand for the structures.

One test relates to Sphaerotheca fuliginea. In words: Sphaerotheca test (cucumber) / protective. It is filed as in vivo. Conditions: Podosphaera fuliginea, 240 h; cucumber plants, protective spray, application rate 100 g/ha, evaluation 10 days after inoculation; read-out: % Efficacy. How it is done: (§1) Sphacrotheca Test (cucumber)/Protective [table] To produce a suitable preparation of active compound, 1 part by weight of active compound is mixed with the stated amounts of solvent and emulsifier, and the concentrate is diluted with water to the desired concentration. To test for protectivity activity, young plants are sprayed with the preparation of active compound at the stated application rate. After the spray coating has dried on, the plants are inoculated with an aqueous spore suspension of Sphaerotheca fuliginea. The plants are then placed in a greenhouse at approximately 23° C. and a relative atmospheric humidity of approximately 70%. Evaluation is carried out 10 days after the inoculation. 0% means an efficacy which corresponds to that of the control, whereas an efficacy of 100% means that no infection is observed.

Another test relates to Venturia inaequalis. The test is described as follows: Venturia test (apple) / protective. It is filed as in vivo. The following applies: 288 h, apple plants, protective spray, application rate 100 g/ha, evaluation 12 days after inoculation, read-out: % Efficacy. The method, then:
Venturia Test (apple)/Protective [table] To produce a suitable preparation of active compound, 1 part by weight of active compound is mixed with the stated amounts of solvent and emulsifier, and the concentrate is diluted with water to the desired concentration. To test for protectivity activity, young plants are sprayed with the preparation of active compound at the stated application rate. After the spray coating has dried on, the plants are inoculated with an aqueous conidia suspension of the apple scab pathogen Venturia inaequalis and then remain in an incubation cabin at approximately 20° C. and 100% relative atmospheric humidity for 1 day. The plants are then placed in a greenhouse at approximately 21° C. and a relative atmospheric humidity of approximately 90%. Evaluation is carried out 12 days after the inoculation. 0% means an efficacy which corresponds to that of the control, whereas an efficacy of 100% means that no infection is observed.

Another test deals with Podosphaera leucotricha. The test is described as follows: Podosphaera test (apple) / protective. Conditions: 240 h, apple plants, protective spray, application rate 100 g/ha, evaluation 10 days after inoculation, read-out: % Efficacy. It is filed as in vivo. How it is done: as §1, with “Podosphaera” for “Sphacrotheca”, “(apple)/Protective Solvent: 24.5 parts by weight of acetone • 24.5 parts by weight of dimethylacetamide Emulsifier; 1.0 part by weight of alkyl-aryl polyglycol ether” for “(cucumber)/Protective [table]”, “protectiv” for “protectivity”, “the apple mildew pathogen Podosphaera leucotricha.” for “Sphaerotheca fuliginea.”

A further test relates to Puccinia recondite. In words: Puccinia test (wheat) / protective. The class given is in vivo. Conditions: wheat plants, protective spray, application rate 250 g/ha, evaluation 10 days after inoculation. The method, then: Puccinia Test (wheat)/Protective [table] To produce a suitable preparation of active compound, 1 part by weight of active compound is mixed with the stated amounts of solvent and emulsifier, and the concentrate is diluted with water to the desired concentration. To test for protective activity, young plants arc sprayed with the preparation of active compound at the stated application rate. After the spray coating has dried on, the plants are sprayed with a conidia suspension of Puccinia recondite. The plants remain in an incubation cabin at 20° C. and 100% relative atmospheric humidity for 48 hours. The plants are then placed in a greenhouse at a temperature of approximately 20° C. and a relative atmospheric humidity of 80% to promote the development of rust pustules. Evaluation is carried out 10 days after the inoculation. 0% means an efficacy which corresponds to that of the control, whereas an efficacy of 100% means that no infection is observed.

The next test deals with Alternaria solani. The test is described as follows: Alternaria test (tomato) / protective. The class given is in vivo. Conditions: tomato plants, protective spray, application rate 750 g/ha, evaluation 7 days after inoculation. The method, then: Alternaria Test (tomato)/Protective [table] To produce a suitable preparation of active compound, 1 part by weight of active compound is mixed with the stated amounts of solvent and emulsifier, and the concentrate is diluted with water to the desired concentration. To test for protective activity, young tomato plants are sprayed with the preparation of active compound at the stated application rate. 1 day after the treatment, the plants are inoculated with a spore suspension of Alternaria solani and then remain at 100% rel. humidity and 20° C. for 24 h. The plants then remain at 96% rel. atmospheric humidity and a temperature of 20° C. Evaluation is carried out 7 days after the inoculation. 0% means an efficacy which corresponds to that of the control, whereas an efficacy of 100% means that no infection is observed.

In test [1] the test system is Gloeophyllum trabeum, Coniophora puteana, Poria placenta, Lentinus tigrinus and Coriolus versicolor. The test is described as follows: Inhibition test on giant colonies of Basidiomycetes. The class given is cell-based. Conditions: inhibition of hyphal growth on malt extract peptone agar at 26° C., 6 ppm active compound; read-out: % efficacy. The method, then: Inhibition Test on Giant Colonies of Basidiomycetes Mycelium sections were removed from colonies of Gloeophyllum trabeum, Coniophora puteana, Poria placenta, Lentinus tigrinus and Coriolus versicolor and incubated on an agar medium containing malt extract peptone at 26° C. The inhibition of hyphal growth on active-compound-containing media was compared with the longitudinal growth on media without an addition of active compound and rated as per cent inhibition.

Turning to `CO/N=C/c1ccc(-c2ccccc2NC(=O)c2sc(C)nc2C(F)(F)F)cc1` [Example I-1], the pest or weed control at 100 g/ha in the test on Sphaerotheca fuliginea, with Venturia inaequalis and in the test on Podosphaera leucotricha was 100% throughout. Besides, the “% Efficacy” value with Puccinia recondite and in the test on Alternaria solani was 100% each time. The Emax at 6 ppm in test [1] was determined as 100%.
Consider `CO/N=C/c1cccc(-c2ccccc2NC(=O)c2sc(C)nc2C(F)(F)F)c1` [Example I-2], for which the “% Efficacy” value in the test on Alternaria solani turned out to be 100%.
For the compound `CCCCO/N=C\c1ccc(-c2ccccc2NC(=O)c2sc(C)nc2C(F)(F)F)cc1` [Example I-3], the pest or weed control at 100 g/ha in the test on Sphaerotheca fuliginea, with Venturia inaequalis and with Podosphaera leucotricha was 100% each time. Further, in the test on Puccinia recondite, the “% Efficacy” value came to 100%.
Consider `CCO/N=C\c1ccc(-c2ccccc2NC(=O)c2sc(C)nc2C(F)(F)F)cc1` [Example I-4], for which the values for the pest or weed control at 100 g/ha in the test with Sphaerotheca fuliginea, in the test with Venturia inaequalis and in the test with Podosphaera leucotricha were 93%, 100% and 95%, respectively.
The matching figures for `Cc1nc(C(F)(F)F)c(C(=O)Nc2ccccc2-c2ccc(/C=N\OC(C)C)cc2)s1` [Example I-5]: 100%, 100% and 100%.
On to `CO/N=C(\C)c1ccc(-c2ccccc2NC(=O)c2sc(C)nc2C(F)(F)F)cc1` [Example I-6], for which the “% Efficacy” value in the test with Alternaria solani is given as 90%.
On to `CO/N=C\c1ccc(-c2ccccc2NC(=O)c2cn(C)nc2C(F)(F)F)cc1` [Example I-10], for which the pest or weed control at 100 g/ha with Sphaerotheca fuliginea, with Venturia inaequalis and in the test on Podosphaera leucotricha was 88% throughout. Further, the “% Efficacy” value in the test with Puccinia recondite is reported as 100%. Besides, the Emax at 6 ppm in test [1] is 100%.
For `CO/N=C/c1ccc(-c2ccccc2NC(=O)c2cn(C)nc2C(F)F)cc1` [Example I-11], the results for the pest or weed control at 100 g/ha with Sphaerotheca fuliginea, with Venturia inaequalis and in the test with Podosphaera leucotricha were 95%, 100% and 93%, respectively. In addition, the “% Efficacy” value in the test with Alternaria solani worked out at 95%. Moreover, the Emax at 6 ppm in test [1] is 100%.
For `CO/N=C\c1ccc(-c2ccccc2NC(=O)c2cn(C)nc2C)cc1` [Example I-12], in test [1], the Emax at 6 ppm stood at 100%.
On to `CO/N=C\c1ccc(-c2ccccc2NC(=O)c2cccnc2Cl)cc1` [Example I-20], for which the pest or weed control at 100 g/ha in the test on Sphaerotheca fuliginea, in the test on Venturia inaequalis and with Podosphaera leucotricha was 100% in each case. The “% Efficacy” value with Puccinia recondite turned out to be 100%.
As to `CCCCO/N=C/c1ccc(-c2ccccc2NC(=O)c2cn(C)nc2C(F)(F)F)cc1` [Example I-22], the pest or weed control at 100 g/ha in the test with Sphaerotheca fuliginea, with Venturia inaequalis and in the test on Podosphaera leucotricha was 100% throughout.
As for `CCCO/N=C/c1ccc(-c2ccccc2NC(=O)c2sc(C)nc2C(F)(F)F)cc1` [Example I-23], the pest or weed control at 100 g/ha in the test on Sphaerotheca fuliginea, in the test on Venturia inaequalis and in the test on Podosphaera leucotricha was 100% each time.
`CCO/N=C(/C)c1ccc(-c2ccccc2NC(=O)c2cn(C)nc2C(F)(F)F)cc1` [Example I-24]: the pest or weed control at 100 g/ha in the test with Sphaerotheca fuliginea was determined as 92%; in the test with Venturia inaequalis, 100%; in the test with Podosphaera leucotricha, 75%.
For `CC(C)O/N=C/c1ccc(-c2ccccc2NC(=O)c2cn(C)nc2C(F)(F)F)cc1` [Example I-26], the pest or weed control at 100 g/ha in the test on Sphaerotheca fuliginea, with Venturia inaequalis and in the test with Podosphaera leucotricha was 100% each time.
For the compound `CCCO/N=C/c1ccc(-c2ccccc2NC(=O)c2cn(C)nc2C(F)(F)F)cc1` [Example I-28], the pest or weed control at 100 g/ha amounted to 100% with Sphaerotheca fuliginea, 100% with Venturia inaequalis and 99% in the test with Podosphaera leucotricha.
As to `Cn1cc(C(=O)Nc2ccccc2-c2ccc(/C=N\O)cc2)c(C(F)(F)F)n1` [Example I-41], the pest or weed control at 100 g/ha with Sphaerotheca fuliginea came to 72%; with Venturia inaequalis, 100%; in the test on Podosphaera leucotricha, 98%.
For the compound `CO/N=C/c1ccc(-c2ccccc2NC(=O)c2sccc2C)cc1` [Example I-47], the pest or weed control at 100 g/ha in the test on Sphaerotheca fuliginea, in the test on Venturia inaequalis and in the test with Podosphaera leucotricha was 100% each time.
For `CO/N=C/c1ccc(-c2ccccc2NC(=O)c2cn(C)nc2C(F)(F)F)cc1Cl` [Example I-49], the pest or weed control at 100 g/ha in the test on Sphaerotheca fuliginea, in the test with Venturia inaequalis and in the test with Podosphaera leucotricha was 100% in each case. Further, in the test with Puccinia recondite, the “% Efficacy” value was determined as 100%.
Take `CO/N=C\c1cc(-c2ccccc2NC(=O)c2cn(C)nc2C(F)(F)F)ccc1/C=N/OC` [Example I-50]: the pest or weed control at 100 g/ha in the test on Sphaerotheca fuliginea stood at 97%; in the test on Venturia inaequalis it was 100%; with Podosphaera leucotricha it was 93%.
`CO/N=C/c1ccc(-c2c(C)cccc2NC(=O)c2sc(C)nc2C(F)(F)F)cc1` [Example I-51]: the pest or weed control at 100 g/ha in the test with Sphaerotheca fuliginea, in the test on Venturia inaequalis and in the test with Podosphaera leucotricha was 100% throughout. For the same compound, in the test with Puccinia recondite, the “% Efficacy” value was determined as 100%.
In the case of `CO/N=C/c1cccc(-c2ccccc2NC(=O)c2cn(C)nc2C(F)(F)F)c1` [Example I-52], the figures for the pest or weed control at 100 g/ha with Sphaerotheca fuliginea, in the test with Venturia inaequalis and in the test with Podosphaera leucotricha were 97%, 100% and 77%, respectively.
